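A five-concentration, 48-hour dose response in 96-well plates underlies each endpoint, interpolated linearly between surrounding concentrations. At the TGI there is no net growth.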
Columns and labels:
Test in all cases: DTP human tumour cell line panel, 48 h
T-47D breast = test system: T-47D breast
HOP-62 NSCLC = test system: HOP-62 NSCLC
ACHN renal = test system: ACHN renal
RXF 393 renal = test system: RXF 393 renal
DU-145 prostate = test system: DU-145 prostate
SN12C renal = test system: SN12C renal
OVCAR-8 ovarian = test system: OVCAR-8 ovarian
A549 NSCLC = test system: A549 NSCLC
SK-OV-3 ovarian = test system: SK-OV-3 ovarian
MOLT-4 leukemia = test system: MOLT-4 leukemia
SNB-19 CNS = test system: SNB-19 CNS
NCI-H226 lung = test system: NCI-H226 lung
MDA-MB-435 = test system: MDA-MB-435
SNB-75 CNS = test system: SNB-75 CNS
CAKI-1 renal = test system: CAKI-1 renal
HL-60(TB) leukemia = test system: HL-60(TB) leukemia
SK-MEL-5 melanoma = test system: SK-MEL-5 melanoma
786-0 renal = test system: 786-0 renal
NCI-H522 lung = test system: NCI-H522 lung
HOP-92 NSCLC = test system: HOP-92 NSCLC
UACC-62 melanoma = test system: UACC-62 melanoma
NCI-H23 lung = test system: NCI-H23 lung
K-562 leukemia = test system: K-562 leukemia
NCI/ADR-RES ovarian = test system: NCI/ADR-RES ovarian
HCT-116 colon = test system: HCT-116 colon
NCI-H460 lung = test system: NCI-H460 lung
OVCAR-5 ovarian = test system: OVCAR-5 ovarian
SF-539 CNS = test system: SF-539 CNS
EKVX NSCLC = test system: EKVX NSCLC
UACC-257 melanoma = test system: UACC-257 melanoma
SW-620 colon = test system: SW-620 colon
OVCAR-3 ovarian = test system: OVCAR-3 ovarian
SF-295 CNS = test system: SF-295 CNS
UO-31 renal = test system: UO-31 renal
A498 renal = test system: A498 renal
MDA-N = test system: MDA-N
HCC-2998 colon = test system: HCC-2998 colon
HS 578T breast = test system: HS 578T breast
MDA-MB-231 breast = test system: MDA-MB-231 breast
PC-3 prostate = test system: PC-3 prostate
KM12 colon = test system: KM12 colon
MCF7 breast = test system: MCF7 breast
U251 CNS = test system: U251 CNS
HT29 colon = test system: HT29 colon
SR leukemia = test system: SR leukemia
LOX IMVI melanoma = test system: LOX IMVI melanoma
HCT-15 colon = test system: HCT-15 colon
BT-549 breast = test system: BT-549 breast
M14 melanoma = test system: M14 melanoma
OVCAR-4 ovarian = test system: OVCAR-4 ovarian
IGROV1 ovarian = test system: IGROV1 ovarian
CCRF-CEM leukemia = test system: CCRF-CEM leukemia
COLO 205 colon = test system: COLO 205 colon
TK-10 renal = test system: TK-10 renal
SF-268 CNS = test system: SF-268 CNS
MALME-3M melanoma = test system: MALME-3M melanoma
SK-MEL-28 melanoma = test system: SK-MEL-28 melanoma
SK-MEL-2 melanoma = test system: SK-MEL-2 melanoma
RPMI-8226 leukemia = test system: RPMI-8226 leukemia

Measured: TGI

COc1c2ccsc2c(OC)c2ccsc12
> 100 µM: T-47D breast | HOP-62 NSCLC | ACHN renal | RXF 393 renal | DU-145 prostate | SN12C renal | OVCAR-8 ovarian | A549 NSCLC | SK-OV-3 ovarian | MOLT-4 leukemia | SNB-19 CNS | NCI-H226 lung | MDA-MB-435 | SNB-75 CNS | HL-60(TB) leukemia | SK-MEL-5 melanoma | 786-0 renal | NCI-H522 lung | HOP-92 NSCLC | UACC-62 melanoma | NCI-H23 lung | K-562 leukemia | NCI/ADR-RES ovarian | HCT-116 colon | NCI-H460 lung | OVCAR-5 ovarian | SF-539 CNS | EKVX NSCLC | UACC-257 melanoma | SW-620 colon | OVCAR-3 ovarian | SF-295 CNS | UO-31 renal | A498 renal | MDA-N | HCC-2998 colon | HS 578T breast | MDA-MB-231 breast | PC-3 prostate | KM12 colon | MCF7 breast | U251 CNS | HT29 colon | SR leukemia | LOX IMVI melanoma | HCT-15 colon | BT-549 breast | M14 melanoma | OVCAR-4 ovarian | IGROV1 ovarian | CCRF-CEM leukemia | COLO 205 colon | TK-10 renal | SF-268 CNS | MALME-3M melanoma | SK-MEL-28 melanoma | SK-MEL-2 melanoma
40 µM: CAKI-1 renal

CCOC(=O)C(NC(=O)CC)(Nc1ccc(F)c(Cl)c1)C(F)(F)F (centres undefined)
> 100 µM: T-47D breast | HOP-62 NSCLC | ACHN renal | RXF 393 renal | DU-145 prostate | SN12C renal | OVCAR-8 ovarian | A549 NSCLC | SK-OV-3 ovarian | MOLT-4 leukemia | SNB-19 CNS | NCI-H226 lung | MDA-MB-435 | SNB-75 CNS | CAKI-1 renal | HL-60(TB) leukemia | SK-MEL-5 melanoma | 786-0 renal | NCI-H522 lung | HOP-92 NSCLC | UACC-62 melanoma | K-562 leukemia | NCI/ADR-RES ovarian | HCT-116 colon | NCI-H460 lung | OVCAR-5 ovarian | SF-539 CNS | EKVX NSCLC | UACC-257 melanoma | SW-620 colon | OVCAR-3 ovarian | SF-295 CNS | UO-31 renal | A498 renal | MDA-N | HCC-2998 colon | HS 578T breast | MDA-MB-231 breast | PC-3 prostate | KM12 colon | MCF7 breast | U251 CNS | HT29 colon | SR leukemia | LOX IMVI melanoma | HCT-15 colon | BT-549 breast | M14 melanoma | RPMI-8226 leukemia | OVCAR-4 ovarian | IGROV1 ovarian | CCRF-CEM leukemia | COLO 205 colon | TK-10 renal | SF-268 CNS | MALME-3M melanoma | SK-MEL-28 melanoma | SK-MEL-2 melanoma

O=[N+]([O-])c1cccc(Cl)c1Oc1ccc(S(=O)(=O)/N=C(\NO)Nc2ccc(Cl)cc2)cc1
47.6 µM: MDA-MB-231 breast
29.3 µM: T-47D breast | NCI-H460 lung
44.4 µM: NCI-H226 lung
26 µM: UACC-257 melanoma | MDA-N
28 µM: SF-268 CNS
25.5 µM: UACC-62 melanoma
17.1 µM: HOP-92 NSCLC
30.7 µM: SNB-19 CNS
28.7 µM: A549 NSCLC
32.7 µM: LOX IMVI melanoma
27.5 µM: ACHN renal | U251 CNS
27.6 µM: HS 578T breast
25.7 µM: SN12C renal | 786-0 renal
31.8 µM: SK-OV-3 ovarian
22.6 µM: OVCAR-3 ovarian
34.7 µM: SK-MEL-28 melanoma
24 µM: HCC-2998 colon
28.1 µM: SF-539 CNS
33.8 µM: HCT-15 colon
50.7 µM: NCI/ADR-RES ovarian
31 µM: COLO 205 colon
30.4 µM: TK-10 renal
35.6 µM: IGROV1 ovarian
29.6 µM: SK-MEL-2 melanoma
16.5 µM: HL-60(TB) leukemia
39.6 µM: OVCAR-8 ovarian
24.2 µM: PC-3 prostate
26.2 µM: EKVX NSCLC
45.4 µM: HOP-62 NSCLC
25 µM: HCT-116 colon
32.2 µM: MCF7 breast
28.2 µM: A498 renal
30.3 µM: SW-620 colon
29.7 µM: CCRF-CEM leukemia
34.4 µM: SF-295 CNS
33.3 µM: K-562 leukemia
30.9 µM: RXF 393 renal
23.7 µM: UO-31 renal
29.2 µM: MDA-MB-435
27.8 µM: RPMI-8226 leukemia
24.7 µM: SK-MEL-5 melanoma
19.3 µM: MOLT-4 leukemia
20.2 µM: NCI-H522 lung
29.9 µM: BT-549 breast
31.2 µM: KM12 colon | MALME-3M melanoma
26.3 µM: OVCAR-4 ovarian
25.8 µM: CAKI-1 renal
30 µM: DU-145 prostate
30.8 µM: HT29 colon
21.1 µM: SR leukemia
27.4 µM: M14 melanoma
33.9 µM: NCI-H23 lung
32.8 µM: OVCAR-5 ovarian
